Biological target: T1, DCAF1 WD40 domain (residues 1077-1390) (Homo sapiens, UniProt Q9Y4B6)
T1 construct: DCAF1 WD40 domain (residues 1077-1390)
Assay: DCAF1 binding assay by SPR (Biacore 8K+), DCAF1-3 KD
Details: 25 °C, read-out: DCAF1-3 SPR (KD)

T1 sequence (Q9Y4B6 1077-1390): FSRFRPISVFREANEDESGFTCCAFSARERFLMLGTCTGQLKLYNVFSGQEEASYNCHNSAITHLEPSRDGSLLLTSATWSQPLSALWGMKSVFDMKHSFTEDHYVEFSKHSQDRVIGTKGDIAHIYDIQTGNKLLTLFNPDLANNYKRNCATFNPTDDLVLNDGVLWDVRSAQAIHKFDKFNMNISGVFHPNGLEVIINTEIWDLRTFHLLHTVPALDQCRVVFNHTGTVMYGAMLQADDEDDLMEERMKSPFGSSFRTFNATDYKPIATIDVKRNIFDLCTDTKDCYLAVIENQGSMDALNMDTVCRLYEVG

| Structure (SMILES) | Kd [µM] |
| --- | --- |
| Cc1[nH]nc(C(=O)N[C@@H](CC(N)=O)c2cccc(Cl)c2)c1-c1ccccc1F [I-230] | > 200 |
| c1ccc2c(N3CCC[C@@H](n4ccc(N5CCOCC5)c5ccnc4-5)C3)nccc2c1 [I-367] | > 200 |
| c1ccc2c(N3CCC[C@@H](Nc4nccc(N5CCOCC5)n4)C3)cccc2c1 [I-52] | > 200 |
| C[C@H](CC(N)=O)NC(=O)c1cn[nH]c1-c1ccccc1F [I-132] | > 200 |
| Fc1cccc(N2CCC[C@@H](n3cnc4c(N5CCOCC5)ccnc43)C2)c1 [I-50] | > 200 |
| CS(=O)(=O)CCc1ccc(F)c(-c2[nH]ncc2C(=O)N[C@@H](CC(N)=O)c2cccc(Cl)c2)c1 [I-247] | > 200 |
| c1ccc(-n2cnc3cc(N4CCC[C@@H](Nc5cc(N6CCOCC6)ccn5)C4)ccc32)cc1 [I-688] | > 200 |
| NC(=O)C[C@H](NC(=O)c1c[nH]nc1-c1cc(-c2nnn[nH]2)ccc1F)c1cccc(Cl)c1 [I-293] | > 200 |
| O=C(N[C@H](c1cccc(Cl)c1)c1ccon1)c1c[nH]nc1-c1ccccc1F [I-232] | > 200 |
| Fc1cccc(N2CCCC(C3(c4cc(N5CCOCC5)ccn4)CC3)C2)c1 (stereo not shown) [I-259] | > 200 |
| O=C(Nc1ccc(F)c(Cl)c1)C1CCN(c2ccnc(-c3ccccc3)n2)CC1 [I-21] | > 200 |
| Fc1cccc(N2CCCC(Nc3nccc(N4CCNCC4)n3)C2)c1 (stereo not shown) [I-23] | > 200 |
| Cc1sc2c(c1C)C(c1ccc(Cl)cc1)=N[C@@H](CC(=O)NCCCCCCCCCCCCCCC1CCN(c3ccnc(N4CC[C@@H]5[C@H]4CCCN5c4cccc(F)c4)c3)CC1)c1nnc(C)n1-2 [I-902] | > 200 |
| C[C@@H](NC(=O)c1cn[nH]c1-c1c(F)cccc1F)c1ncc[nH]1 [I-839] | > 200 |
| NC(=O)C[C@H](NC(=O)C1=C(c2c(F)cccc2F)CCNC1)c1cccc(Cl)c1 [I-550] | 100 to 200 |
| C=CC(=O)N1CCC1C(=O)N1CCN(c2ccnc(N[C@@H]3CCCN(c4cccc(F)c4)C3)c2)CC1 (stereo partly shown) [I-464] | > 200 |
| CC(=O)N(c1cc(N2CCOCC2)ccn1)[C@@H]1CCCN(c2cccc(F)c2)C1 [I-271] | > 200 |
| O=C(O)c1cc2c(N3CCC[C@@H](Nc4cc(N5CCOCC5)ccn4)C3)cccc2s1 [I-855] | > 200 |
| O=C(Nc1ccccc1)NC1CCCN(C(=O)N2CCC=C(F)C2)C1 (stereo not shown) [I-85] | > 200 |
| Fc1cccc(N2CCC[C@@H](n3cnc4nccc(N5CCOCC5)c43)C2)c1 [I-494] | > 200 |
| NC(=O)C[C@@](NC(=O)c1c[nH]nc1-c1ccccc1F)(C(=O)O)c1cccc(Cl)c1 [I-294] | > 200 |
| CCCN(c1nccc(N2CCOCC2)n1)[C@@H]1CCCN(c2cccc(F)c2)C1 [I-44] | > 200 |
| NC(=O)C[C@H](NC(=O)c1c[nH]nc1-c1cc(F)ccc1F)c1cccc(Cl)c1 [I-267] | > 200 |
| C=CC(=O)NCCC1CCN(c2ccnc(N3CC[C@@H]4[C@H]3CCCN4c3cccc(F)c3)c2)CC1 [I-666] | > 200 |
| COc1cnc(N2CCOCC2)cc1N[C@@H]1CCCN(c2cccc(F)c2)C1 [I-407] | > 200 |

Other lines, results leading:

| Kd [µM] | Structure (SMILES) |
| --- | --- |
| > 200 | O=C(Nc1nc2c(s1)CCCC2)[C@@H]1CCCN(c2cccc(F)c2)C1 [I-669] |
| < 10 | Cc1c(F)ccc(F)c1-c1c(C(=O)N[C@@H](CC(N)=O)c2cccc(Cl)c2)c[nH]c1C(=O)c1ccc(CCCOCCOCCOCCN)cc1 [I-806] |
| 100 to 200 | c1ccc(Cn2ccc3c(N4CCC[C@@H](Nc5cc(N6CCOCC6)ccn5)C4)ncnc32)cc1 [I-680] |
| < 10 | NC(=O)C[C@H](NC(=O)c1cn[nH]c1CC1CCCCC1)c1cccc(Cl)c1 [I-582] |
| > 200 | Fc1cccc([C@@H]2CCC[C@@H](Nc3nccc(N4CCOCC4)n3)C2)c1 [I-185] |
| > 200 | NC(=O)C[C@@]1(NC(=O)c2c[nH]nc2-c2ccccc2F)CCc2cc(Cl)ccc21 [I-242] |
| > 200 | Fc1cccc(N2CCC[C@@H](Sc3cc(N4CCOCC4)ccn3)C2)c1 [I-113] |
| 100 to 200 | NC(=O)N1CC2(CCCN(c3cccc(F)c3)C2)Nc2cc(N3CCCCC3)ncc21 (stereo not shown) [I-1006] |
| < 10 | Cc1ccccc1[C@H](CC(N)=O)NC(=O)c1cn[nH]c1-c1ccccc1F [I-105] |
| 100 to 200 | NC[C@@H]1CCN(c2cccc(F)c2)C[C@@H]1Nc1cc(N2CCCCC2)ccn1 [I-1045] |
| 10 to 100 | Fc1cccc(N2CCC[C@@H](Nc3cc(N4CCCCC4)cc4c3CNC4)C2)c1 [I-1050] |
| 10 to 100 | Cc1cn2cc(N3CCC[C@@H](Nc4cc(N5CCOCC5)ccn4)C3)ccc2n1 [I-763] |
| < 10 | C[C@@H](C(N)=O)[C@H](NC(=O)c1c[nH]nc1-c1ccccc1F)c1cccc(Cl)c1 [I-148] |
| < 10 | NC(=O)C[C@H](NC(=O)c1cn[nH]c1-c1cccc(F)c1)c1cccc(Cl)c1 [I-115] |
| < 10 | Cc1sc2c(c1C)C(c1ccc(Cl)cc1)=N[C@@H](CC(=O)N(C)CCOCCOCCOCCOCCOCC(=O)c1[nH]cc(C(=O)N[C@@H](CC(N)=O)c3cccc(Cl)c3)c1-c1ccccc1F)c1nnc(C)n1-2 [I-900] |
| 100 to 200 | c1cnc2ccnc(N3CCC[C@@H](Nc4cc(N5CCOCC5)ccn4)C3)c2c1 [I-63] |
| < 10 | Cc1c(F)ccc(F)c1-c1c(C(=O)N[C@@H](CC(N)=O)c2cccc(Cl)c2)c[nH]c1C(=O)c1cccc(O)c1 [I-792] |

| Kd [µM] | Structure (SMILES) |
| --- | --- |
| < 10 | CN(c1cccc(F)c1)[C@@H]1CCN(c2cc(N3CCCCC3)ccn2)C1 [I-673] |
| 10 to 100 | Oc1ccc2nc(N3CCC[C@@H](Nc4cc(N5CCOCC5)ccn4)C3)ccc2c1 [I-780] |
| 10 to 100 | Fc1cccc(N2CCC[C@H](Nc3cc(N4CCOCC4)ccn3)C2)c1 [I-499] |
| < 10 | C[C@@H]1CCCCN1c1ccnc(N[C@@H]2CCCN(c3cccc(F)c3)C2)c1 [I-568] |
| < 10 | NCCOCCOCCOCCOCCOCCOCCC1CCN(c2ccnc(N3CC[C@@H]4[C@H]3CCCN4c3cccc(F)c3)c2)CC1 [I-661] |
| < 10 | Cc1cccc(F)c1-c1c(C(=O)N[C@@H](CC(N)=O)c2cccc(Cl)c2)c[nH]c1-c1ccccn1 [I-656] |
| < 10 | Cc1c(F)ccc(F)c1-c1c(C(=O)N[C@@H](CC(N)=O)c2cccc(Cl)c2)cn(C)c1C(=O)c1ccccc1 [I-886] |
| < 10 | Cc1sc2c(c1C)C(c1ccc(Cl)cc1)=N[C@@H](CC(=O)NCCOCCOCCOCCOCCCc1ccc(C(=O)c3c(-c4c(F)ccc(F)c4C)c(C(=O)N[C@@H](CS(C)(=O)=O)c4cccc(Cl)c4)cn3C)cc1)c1nnc(C)n1-2 [I-915] |
| < 10 | Fc1cccc(N2CCC[C@@H](Nc3cc(N4CC5CCC(C5)C4)ccn3)C2)c1 [I-553] |
| 10 to 100 | C=CC(=O)N(CCCCN1CCN(c2ccnc(N[C@@H]3CCCN(c4cccc(F)c4)C3)c2)CC1)CCOCCOCCNC(=O)C[C@@H]1N=C(c2ccc(Cl)cc2)c2c(sc(C)c2C)-n2c(C)nnc21 [I-904] |
| < 10 | Cc1c(F)ccc(F)c1-c1c(C(=O)N[C@@H](CC(N)=O)c2cccc(Cl)c2)csc1C#N [I-972] |
| 10 to 100 | CN(c1ccnc(N[C@@H]2CCCN(c3cccc(F)c3)C2)c1)C1CCCCC1 [I-578] |
| 100 to 200 | CC(C)Oc1cncc(N2CCC[C@@H](Nc3cc(N4CCOCC4)ccn3)C2)c1 [I-433] |
| 10 to 100 | Fc1cccc(N2CCC[C@@H]3[C@H]2CCN3c2cc(N3CCOCC3)ccn2)c1 [I-189] |
| 10 to 100 | OCCCc1cccc(N2CCC[C@@H](Nc3cc(N4CCOCC4)ccn3)C2)c1 [I-862] |
| 10 to 100 | C=CC(=O)N1C[C@H](c2ccc(Br)cc2)[C@@H]1C(=O)N1CCN(c2ccnc(N[C@@H]3CCCN(c4cccc(F)c4)C3)c2)CC1 [I-641] |

Source: patent publication US20260373266A1, “PROTEIN DEGRADERS AND USES THEREOF” (KYMERA THERAPEUTICS, INC., priority 2022, published 2026)
